Measurements from patent US9765091B2, “Tetrahydropyrazolo [3,4-b] azepine derivatives and their use as allosteric modulators of metabotropic glutamate receptors” (Addex Pharma S.A., priority 2010, dated 2017).

Target: T1, human mGluR4 (Homo sapiens, UniProt Q14833)
T1 construct: expressed in transfected cells
Experiment: Fluorescent cell based Ca2+ mobilization assay (FLIPR) on HEK-293 cells expressing human mGluR4
Settings: positive allosteric modulation, HEK-293 cells expressing hmGluR4, stimulated by EC25 glutamate; mean of at least three independent experiments in duplicate; read-out: Ca^2+ Flux* (mean EC50)
Description: mGluR4 Assay on HEK-Expressing Human mGluR4
The compounds of the present invention are positive allosteric modulators of mGluR4 receptor. Their activity was examined on recombinant human mGluR4a receptors by detecting changes in intracellular Ca^2+ concentration, using the fluorescent Ca^2+-sensitive dye Fluo4-(AM) and a Fluorometric Imaging Plate Reader (FLIPR, Molecular Devices, Sunnyvale, Calif.).
The cDNA encoding the human metabotropic glutamate receptor (hmGluR4), (accession number NM_000841.1, NCBI Nucleotide database browser), was subcloned into an expression vector containing also the hygromycin resistance gene. In parallel, the cDNA encoding a G protein allowing redirection of the activation signal to intracellular calcium flux was subcloned into a different expression vector containing also the puromycin resistance gene. Transfection of both these vectors into HEK293 cells with PolyFect reagent (Qiagen) according to supplier's protocol, and hygromycin and puromycin treatment allowed selection of antibiotic resistant cells which had integrated stably one or more copies of the plasmids. Positive cellular clones expressing hmGluR4 were identified in a functional assay measuring changes in calcium fluxes in response to glutamate or selective known mGluR4 orthosteric agonists and antagonists. HEK-293 cells expressing hmGluR4 were maintained in media containing DMEM, dialyzed Fetal Calf Serum (10%), Glutamax™ (2 mM), Penicillin (100 units/mL), Streptomycin (100 μg/mL), Geneticin (100 μg/mL) and Hygromycin-B (40 μg/mL) and puromycin (1 μg/mL) at 37° C./5% CO2.
Human mGluR4 HEK-293 cells were plated out 24 hours prior to FLIPR^384 assay in black-walled, clear-bottomed, poly-L-ornithine-coated 384-well plates at a density of 25,000 cells/well in a glutamine/glutamate free DMEM medium containing foetal bovine serum (10%), penicillin (100 units/mL) and streptomycin (100 μg/mL) at 37° C./5% CO2.
On the day of the assay, the medium was aspirated and the cells were loaded with a 3 μM solution of Fluo4-AM (LuBioScience, Lucerne, Switzerland) in 0.03% pluronic acid. After 1 hour at 37° C./5% CO2, the non incorporated dye was removed by washing cell plate with the assay buffer and the cells were left in the dark at room temperature for […] before testing. All assays were performed in a pH 7.4 buffered-solution containing 20 mM HEPES, 143 mM NaCl, 6 mM KCl, 1 mM MgSO4, 1 mM CaCl2, 0.125 mM sulfapyrazone and 0.1% glucose.
After 10 s of basal fluorescence recording, various concentrations of the compounds of the invention were added to the cells. Changes in fluorescence levels were first monitored for 180 s in order to detect any agonist activity of the compounds. Then the cells were stimulated by an EC25 glutamate concentration for an additional 110 s in order to measure enhancing activities of the compounds of the invention. EC25 glutamate concentration is the concentration giving 25% of the maximal glutamate response.
The concentration-response curves of representative compounds of the present invention were generated using the Prism GraphPad software (Graph Pad Inc, San Diego, USA). The curves were fitted to a four-parameter logistic equation: (Y=Bottom+(Top−Bottom)/(1+10^((Log EC50−X)*Hill Slope) allowing the determination of EC50 values.
The Table 4 below represents the mean EC50 obtained from at least three independent experiments of selected molecules performed in duplicate.

T1 sequence (Q14833 33-912): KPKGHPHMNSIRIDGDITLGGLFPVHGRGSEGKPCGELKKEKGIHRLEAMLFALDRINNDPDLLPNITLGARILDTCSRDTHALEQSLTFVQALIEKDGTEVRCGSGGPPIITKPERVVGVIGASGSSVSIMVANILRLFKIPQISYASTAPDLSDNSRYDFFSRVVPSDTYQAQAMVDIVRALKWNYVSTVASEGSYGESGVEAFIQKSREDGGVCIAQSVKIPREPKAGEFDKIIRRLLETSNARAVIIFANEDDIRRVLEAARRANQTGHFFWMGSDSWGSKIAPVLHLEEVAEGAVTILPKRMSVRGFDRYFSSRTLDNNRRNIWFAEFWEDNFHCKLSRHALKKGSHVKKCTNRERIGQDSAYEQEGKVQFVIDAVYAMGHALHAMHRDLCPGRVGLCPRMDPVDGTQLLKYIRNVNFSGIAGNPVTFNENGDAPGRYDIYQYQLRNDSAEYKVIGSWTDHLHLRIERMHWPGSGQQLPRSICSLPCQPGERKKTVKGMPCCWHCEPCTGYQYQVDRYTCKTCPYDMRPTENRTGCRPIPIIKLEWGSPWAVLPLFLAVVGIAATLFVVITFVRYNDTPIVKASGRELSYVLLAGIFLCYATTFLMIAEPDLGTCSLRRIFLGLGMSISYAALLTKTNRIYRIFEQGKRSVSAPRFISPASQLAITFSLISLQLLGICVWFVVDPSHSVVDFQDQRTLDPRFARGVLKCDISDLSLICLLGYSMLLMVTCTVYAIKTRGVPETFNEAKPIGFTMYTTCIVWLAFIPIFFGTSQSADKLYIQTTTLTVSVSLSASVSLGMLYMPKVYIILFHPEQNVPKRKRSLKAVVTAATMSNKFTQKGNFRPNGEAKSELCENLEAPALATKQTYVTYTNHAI

| EC50 | Structure (SMILES) |
| --- | --- |
| < 100 nM | Fc1cnc(Nc2nc3c(s2)CCN(Cc2ccc(Cl)cn2)c2n[nH]cc2-3)nc1 [Compound 1-41, 6-((5-Chloropyridin-2-yl)methyl)-N-(5-fluoropyrimidin-2-yl)-4,5,6,8-tetrahydropyrazolo[3,4-b]thiazolo[4,5-d]azepin-2-amine] |
| < 100 nM | CC(C)c1cc(CN2CCc3nc(Nc4ncc(F)cn4)sc3-c3c[nH]nc32)no1 [Compound 1-42] |
| < 100 nM | CC(C)OCCN1CCc2sc(Nc3ncc(F)cn3)nc2-c2c[nH]nc21 [Compound 1-43, N-(5-Fluoropyrimidin-2-yl)-6-(2-isopropoxyethyl)-4,5,6,8-tetrahydropyrazolo[3,4-b]thiazolo[4,5-d]azepin-2-amine] |
| < 100 nM | Fc1cnc(Nc2nc3c(s2)CCN(CC2CCC2)c2n[nH]cc2-3)nc1 [Compound 1-44, 6-(Cyclobutylmethyl)-N-(5-fluoropyrimidin-2-yl)-4,5,6,8-tetrahydropyrazolo[3,4-b]thiazolo[4,5-d]azepin-2-amine] |
| < 100 nM | Fc1cnc(Nc2nc3c(s2)CCN(Cc2ccccc2)c2[nH]ncc2-3)nc1 [Compound 1-45, 6-Benzyl-N-(5-fluoropyrimidin-2-yl)-4,5,6,7-tetrahydropyrazolo[3,4-b]thiazolo[4,5-d]azepin-2-amine] |
| < 100 nM | Cc1cc(CN2CCc3sc(Nc4nccc(C)n4)nc3-c3c[nH]nc32)on1 [Compound 1-46, 6-((3-Methylisoxazol-5-yl)methyl)-N-(4-methylpyrimidin-2-yl)-4,5,6,8-tetrahydropyrazolo[3,4-b]thiazolo[4,5-d]azepin-2-amine] |
| < 100 nM | Fc1cnc(Nc2nc3c(s2)CCN(CC2CCCO2)c2[nH]ncc2-3)nc1 (centres unmarked) [Compound 1-48, N-(5-Fluoropyrimidin-2-yl)-6-((tetrahydrofuran-2-yl)methyl)-4,5,6,7-tetrahydropyrazolo[3,4-b]thiazolo[4,5-d]azepin-2-amine] |
| < 100 nM | Fc1cnc(Nc2nc3c(s2)CCN(Cc2ncccn2)c2[nH]ncc2-3)nc1 [Compound 1-49, N-(5-Fluoropyrimidin-2-yl)-6-(pyrimidin-2-ylmethyl)-4,5,6,7-tetrahydropyrazolo[3,4-b]thiazolo[4,5-d]azepin-2-amine] |
| < 100 nM | COCCN1CCc2sc(Nc3ncc(O)cn3)nc2-c2cn[nH]c21 [Compound 1-50, 2-(6-(2-Methoxyethyl)-4,5,6,7-tetrahydropyrazolo[3,4-b]thiazolo[4,5-d]azepin-2-ylamino)pyrimidin-5-ol] |
| < 100 nM | Cn1ncc(CN2CCc3sc(Nc4ncc(F)cn4)nc3-c3cn[nH]c32)n1 [Compound 1-52, N-(5-Fluoropyrimidin-2-yl)-6-((2-methyl-2H-1,2,3-triazol-4-yl)methyl)-4,5,6,7-tetrahydropyrazolo[3,4-b]thiazolo[4,5-d]azepin-2-amine] |
| 1000 to 10000 nM | COCCN1CCc2sc(Nc3cccc(CO)n3)nc2-c2c[nH]nc21 [Compound 1-53, (6-(6-(2-Methoxyethyl)-4,5,6,8-tetrahydropyrazolo[3,4-b]thiazolo[4,5-d]azepin-2-ylamino)pyridin-2-yl)methanol] |
| 1000 to 10000 nM | COCCN1CCc2sc(Nc3ccnc(C)n3)nc2-c2c[nH]nc21 [Compound 1-54, 6-(2-Methoxyethyl)-N-(2-methylpyrimidin-4-yl)-4,5,6,8-tetrahydropyrazolo[3,4-b]thiazolo[4,5-d]azepin-2-amine] |
| 1000 to 10000 nM | COCCN1CCc2sc(Nc3ccncn3)nc2-c2c[nH]nc21 [Compound 1-55, 6-(2-Methoxyethyl)-N-(pyrimidin-4-yl)-4,5,6,8-tetrahydropyrazolo[3,4-b]thiazolo[4,5-d]azepin-2-amine] |
| 100 to 1000 nM | Fc1cnc(Nc2nc3c(s2)CCN(Cc2ccn[nH]2)c2n[nH]cc2-3)nc1 [Compound 1-56, 6-((1H-Pyrazol-5-yl)methyl)-N-(5-fluoropyrimidin-2-yl)-4,5,6,8-tetrahydropyrazolo[3,4-b]thiazolo[4,5-d]azepin-2-amine] |
| 1000 to 10000 nM | Fc1cnc(Nc2nc3c(s2)CCN(Cc2[nH]ncc2Br)c2n[nH]cc2-3)nc1 [Compound 1-57, 6-((4-Bromo-1H-pyrazol-5-yl)methyl)-N-(5-fluoropyrimidin-2-yl)-4,5,6,8-tetrahydropyrazolo[3,4-b]thiazolo[4,5-d]azepin-2-amine] |
| 100 to 1000 nM | Fc1cnc(Nc2nc3c(s2)CCN(Cc2ccc(Cl)cc2)c2[nH]ncc2-3)nc1 [Compound 1-58, 6-(4-Chlorobenzyl)-N-(5-fluoropyrimidin-2-yl)-4,5,6,7-tetrahydropyrazolo[3,4-b]thiazolo[4,5-d]azepin-2-amine] |
| 1000 to 10000 nM | Cc1ccccc1CN1CCc2sc(Nc3ncc(F)cn3)nc2-c2cn[nH]c21 [Compound 1-59, N-(5-Fluoropyrimidin-2-yl)-6-(2-methylbenzyl)-4,5,6,7-tetrahydropyrazolo[3,4-b]thiazolo[4,5-d]azepin-2-amine] |
| 100 to 1000 nM | COc1cccc(CN2CCc3sc(Nc4ncc(F)cn4)nc3-c3cn[nH]c32)c1 [Compound 1-60, N-(5-Fluoropyrimidin-2-yl)-6-(3-methoxybenzyl)-4,5,6,7-tetrahydropyrazolo[3,4-b]thiazolo[4,5-d]azepin-2-amine] |
| < 100 nM | Fc1ccc(CN2CCc3sc(Nc4ncc(F)cn4)nc3-c3cn[nH]c32)nc1 [Compound 1-61, 6-((5-Fluoropyridin-2-yl)methyl)-N-(5-fluoropyrimidin-2-yl)-4,5,6,7-tetrahydropyrazolo[3,4-b]thiazolo[4,5-d]azepin-2-amine] |
| < 100 nM | Fc1cnc(Nc2nc3c(s2)CCN(Cc2ccc(C(F)(F)F)cn2)c2[nH]ncc2-3)nc1 [Compound 1-62, N-(5-Fluoropyrimidin-2-yl)-6-((5-(trifluoromethyl)pyridin-2-yl)methyl)-4,5,6,7-tetrahydropyrazolo[3,4-b]thiazolo[4,5-d]azepin-2-amine] |
| < 100 nM | Cc1ccnc(CN2CCc3nc(Nc4ncc(F)cn4)sc3-c3cn[nH]c32)c1 [Compound 1-63] |
| 100 to 1000 nM | Fc1cnc(Nc2nc3c(s2)CCN(Cc2ncccc2Cl)c2[nH]ncc2-3)nc1 [Compound 1-64, 6-((3-Chloropyridin-2-yl)methyl)-N-(5-fluoropyrimidin-2-yl)-4,5,6,7-tetrahydropyrazolo[3,4-b]thiazolo[4,5-d]azepin-2-amine] |
| 100 to 1000 nM | Fc1cnc(Nc2nc3c(s2)CCN(CCc2ccccc2)c2[nH]ncc2-3)nc1 [Compound 1-65, N-(5-Fluoropyrimidin-2-yl)-6-phenethyl-4,5,6,7-tetrahydropyrazolo[3,4-b]thiazolo[4,5-d]azepin-2-amine] |
| 100 to 1000 nM | COCCN1CCc2sc(Nc3nc(C)ccc3F)nc2-c2cn[nH]c21 [Compound 1-66, N-(3-Fluoro-6-methylpyridin-2-yl)-6-(2-methoxyethyl)-4,5,6,7-tetrahydropyrazolo[3,4-b]thiazolo[4,5-d]azepin-2-amine] |
| 100 to 1000 nM | Fc1cnc(Nc2nc3c(s2)CCN(Cc2cccc(Cl)c2)c2[nH]ncc2-3)nc1 [Compound 1-67, 6-(3-Chlorobenzyl)-N-(5-fluoropyrimidin-2-yl)-4,5,6,7-tetrahydropyrazolo[3,4-b]thiazolo[4,5-d]azepin-2-amine] |

| Structure (SMILES) | EC50 |
| --- | --- |
| Fc1cnc(Nc2nc3c(s2)CCN(C[C@H]2CCCO2)c2[nH]ncc2-3)nc1 [Compound 1-51] | < 100 nM |
